{
  "source": "patent US20210343422A1",
  "about": "“METHODS FOR DYNAMIC MODELING AND CLOSED-LOOP CONTROL OF INFLAMMATION” (Georgia Tech Research Corporation, priority 2018, published 2021)",
  "molecules": {"B1": {"name": "interferon gamma (protein, UniProt P01580 23-155, looked up)", "Interferon gamma": "HGTVIESLESLNNYFNSSGIDVEEKSLFLDIWRNWQKDGDMKILQSQIISFYLRLFEVLKDNQAISNNISVIESHLITTFFSNSKAKKDAFMSIAKFEVNNPQVQRQAFNELIRVVHQLLPESSLRKRKRSRC", "notes": "interferon gamma (R&D Systems; 485-MI), second orthogonal pro-inflammatory input"}, "B2": {"name": "interleukin (IL)-4 (protein, UniProt P07750 21-140, looked up)", "Interleukin-4": "HIHGCDKNHLREIIGILNEVTGEGTPCTEMDVPNVLTATKNTTESELVCRASKVLRIFYLKHGKTPCLKKNSSVLMELQRLFRAFRCLDSSISCTMNESKSTSLKDFLESLKSIMQMDYS", "notes": "interleukin-4 (PeproTech; 214-14), used to induce an anti-inflammatory, non-naive state"}},
  "key": {"[1]": {"test_system": "RAW 264.7 murine immortalized macrophages", "assay": "iNOS expression by immunocytochemistry (ICC), normalized to nuclei count", "format": "cell-based", "settings": "for sensitivity of iNOS response, IFN-γ versus TNF-α as second pro-inflammatory stimulus: FIG. 9", "procedure": "(§1) All studies in this work were performed using RAW 264.7 murine immortalized macrophages (ATCC TIB-71™). Macrophages were expanded, maintained, and cultured in basal macrophage medium, which is comprised of DMEM (Thermo Fisher Scientific; Ser. No. 12/430,062), 10% FBS (Thermo Fisher Scientific; 26140079), and 1% antibiotic/antimycotic (Sigma-Aldrich; A5955).\n(§2) Raw 264.7 macrophages were cultured to 70% confluence before conditioning began. Cells were conditioned by addition of medium with lipopolysaccharide (LPS; Sigma-Aldrich; L2880), interferon gamma (IFN-γ; R&D Systems; 485-MI), or interleukin (IL)-4 (PeproTech; 214-14) as indicated.\n(§3) Raw 264.7 macrophages were conditioned with LPS or IFN-γ alone to quantify individual stimulus dynamic response, with LPS or IFN-γ sequentially to recover iNOS expression via orthogonal input, or with LPS […] to quantify supra-additivity and model predictive control strategy response. Pre-treatment, 24 hours of IL-4 prior to addition of LPS or IFN-γ, was used to induce an anti-inflammatory, non-nave state for experiments involving hysteretic effects.\nFor immunocytochemistry (ICC) experiments, macrophages were cultured in 96-well microplates. Macrophages were fixed in 4% PFA solution for 15 minutes and blocked with 5% BSA+3% goat serum in PBS for one hour. Cells were stained with α-iNOS antibody (Cell Signaling Technology; Cat. No. 13120; 1:400) and DAPI for normalization to nuclei count. Cells were imaged at 10× magnification (Zeiss Observer Z1). Image fluorescence was thresholded and total fluorescence above the threshold was normalized to nuclei number.\n(§4) ICC and Western blot data were aggregated and iNOS expression for each independent experiment was normalized to the positive control with Raw264.7 cells treated with 1 μg/mL LPS for 24 hours (dynoDataLoad.m). iNOS dynamics plots were generated using the Gramm package for MATlAB. Data at sampled time points (0, 24 48, and 72 hours) were expressed as mean±SEM for separated data (N=38 for LPS single input experiments; N=8 for LPS repeated input experiments; N=8 for LPS cycled input experiments; N=32 for IFN-γ single input experiments; N=16 for IFN-γ repeated input experiments; N=16 for IFN-γ cycled input experiments). To generate interpolation curves data were smoothed using the Savitzky-Golay (sgolay) option in the curve fitting toolbox. Shaded band on curve represents root mean squared (RMS) cross validation error on smoothed data (macrophageDyn_figGenv3.m)."}, "[2]": {"test_system": "RAW 264.7 murine immortalized macrophages", "assay": "iNOS expression by quantitative Western blot, normalized to α-tubulin", "format": "cell-based", "procedure": "as §1, §2\nFor Western blot experiments, cells were cultured in 6-well plates then lysed using RIPA buffer with PMSF (Sigma-Aldrich), and cOmplete Mini (Sigma-Aldrich). Membranes were probed for α-tubulin (Sigma-Aldrich, Cat. No. T6074; 1:4000) and iNOS (1:1000). Membranes were imaged on a LiCor Odyssey CLx machine and quantified in ImageStudio Lite. iNOS band intensity was normalized to α-tubulin intensity to yield iNOS expression.\nas §4"}, "[3]": {"test_system": "Raw264.7 cells", "assay": "Arg1 expression for M2 polarization validation", "format": "cell-based, murine", "settings": "IL-4 pre-conditioning, FIG. 11", "procedure": "as §3\nTo model Raw264.7 cells starting in a non-nave state, the inventors pre-conditioned macrophages with IL-4 for 24 hours prior to pro-inflammatory stimulation. […] Reference source not found. For each LPS concentration, iNOS expression for non-M2 polarized LPS-only treated cells were divided by iNOS expression values from cell treated with an array of IL-4 concentrations for 24 hours followed by 24 hours of LPS. The matrix of LPS and IL-4 concentrations was interpolated using 3rd order linear least squares, which provided the inverse of the continuous input concentration-dependent attenuation factor γ. […] The M2 driven attenuation of M1 response reflects the systemic immunosuppression that poses a major risk to post-traumatic or surgical injury patients."}, "[4]": {"settings": "physiologically relevant concentration range"}},
  "note": "Entries after “also recorded” stand apart in the source; their conditions may differ.",
  "data": [
    {"molecule": "TNF-α", "values": [
      {"measurement": "sensitivity of iNOS response, IFN-γ versus TNF-α as second pro-inflammatory stimulus", "setting": "[1]; [4]", "value": "more sensitive to IFN-γ"}
    ]},
    {"molecule": "lipopolysaccharide [LPS]", "values": [
      {"measurement": "time of peak in iNOS expression", "setting": "[2]; single administration of 1 μg/ml LPS", "value": 24, "unit": "h"},
      {"measurement": "decay of iNOS expression to baseline after the peak", "setting": "[2]; single administration of 1 μg/ml LPS, LPS not removed", "value": 48, "unit": "h"},
      {"measurement": "duration of iNOS level", "setting": "[1]; LQG controller input: 24 hours of 20 ng/ml, then 48 hours at 1 μg/ml LPS", "value": "sustained this iNOS level through 48 hours, but not through 72 hours"},
      {"measurement": "iNOS expression level, of the reference", "setting": "[1]; LQG controller input: 24 hours of 20 ng/ml, then 48 hours at 1 μg/ml LPS, read at 24 hours", "value": 60, "unit": "%"},
      {"measurement": "iNOS expression, peak, of normalized max iNOS", "setting": "[1]; PI controller input: 40 ng/ml LPS for 24 hours, then 1 μg/ml until 72 hours, read at 24 hours, max = 24 hour level given 1 μg/ml LPS", "value": "approximately 70%"},
      {"measurement": "iNOS expression, of max", "setting": "[1]; PI controller input: 40 ng/ml LPS for 24 hours, then 1 μg/ml, read at 48 hours", "value": 50, "unit": "% max"},
      {"measurement": "iNOS response above the high LPS concentration", "setting": "[1]; above 1 μg/ml LPS", "value": "response tapered off"},
      {"measurement": "iNOS expression at 72 hours", "setting": "[1]; combined PI and LQG three-step LPS input strategy", "value": "did not keep activation high at 72 hours"},
      {"measurement": "iNOS expression dynamics on repeated or cycled LPS stimulation", "setting": "[1]; multiple administrations of LPS, or 24 hours in control media before LPS re-stimulation", "value": "did not alter iNOS expression dynamics; also recorded: not modulated"},
      {"measurement": "LPS dose-to-iNOS response relationship", "setting": "[1]; physiologically relevant concentration range, up to 1 μg/ml LPS", "value": "monotonic"}
    ]},
    {"molecule": "B1", "values": [
      {"measurement": "temporal iNOS response to IFN-γ alone", "setting": "[1]; 100 ng/ml IFN-γ alone, FIG. 10", "value": "not sustained"},
      {"measurement": "iNOS levels after prior LPS input", "setting": "[1]; 24 hrs of LPS, then IFN-γ delayed or immediately after, FIGS. 4B-4C", "value": "robustly increased iNOS levels"},
      {"measurement": "effect on LPS-induced iNOS expression (supra-additivity)", "setting": "[1]; IFN-γ with LPS, concomitantly or in series, through 72 hours", "value": "amplifies LPS-induced iNOS expression"},
      {"measurement": "iNOS expression in IL-4 pre-treated cells, IFN-γ with LPS versus LPS alone", "setting": "[1]; lower LPS and higher IL-4 concentrations, FIG. 5B-5C", "value": "greater iNOS expression was observed"},
      {"measurement": "sensitivity of iNOS response, IFN-γ versus TNF-α as second pro-inflammatory stimulus", "setting": "[1]; [4]", "value": "more sensitive to IFN-γ"}
    ]},
    {"molecule": "B2", "values": [
      {"measurement": "iNOS protein expression", "setting": "[2]; IL-4 treatment, FIG. 8, n=2", "value": "not expressed"},
      {"measurement": "Arg1 expression", "setting": "[3]", "value": "increased expression of Arg1"},
      {"measurement": "iNOS expression after IL-4 pre-conditioning", "setting": "[1]; IL-4 for 24 hours, then 24 hr of LPS", "value": "attenuated expression of iNOS"}
    ]}
  ]
}
